The results in this text go back to PubChem BioAssay (NCI).

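Protocol summary: plate cells (96-well), add compound at 5 concentrations, incubate 48 h, interpolate endpoints linearly. TGI denotes the concentration required for complete inhibition of growth.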 A value given as a limit tells only on which side of the number the result lay.

Common to all, as to assay: inhibition of tumour cell growth, NCI panel, 48 h
In assay [1] the test system is A498 renal.
Assay [2] concerns ACHN renal.
Assay [3] deals with HOP-92 NSCLC.
The test system of assay [4] is HT29 colon.
The test system of assay [5] is MOLT-4 leukemia.
Assay [6] relates to RXF 393 renal.
For assay [7], the system named is SF-295 CNS.
Assay [8] relates to U251 CNS.
In assay [9] the test system is UO-31 renal.
Assay [10] relates to NCI-H460 lung.

In the case of `C#CCOC(=O)C(N)CCSC` (centres undefined), the TGI in assay [1], in [2], in assay [3], in assay [4], in assay [5] and in assay [6] was > 100 µM throughout. The TGI in assay [7], in [8] and in assay [9] was > 100 µM throughout.
Regarding `COc1ccc2c(c1)-c1[nH]c3ccccc3c1CC2`, the TGI in assay [2] amounted to 32.3 µM; in assay [3], 31.8 µM; in [4], 22.9 µM; in assay [5], 36.2 µM; in [10], 29.9 µM; in assay [7] it was 27.3 µM. For the same compound, the results for the TGI in assay [8] and in assay [9] were 30.8 µM and 29.5 µM, respectively.
With `CC(/C=N/NC1=NCCCN1)=N\NC1=NCCCN1`, the TGI in [2], in [3], in assay [4], in assay [5], in assay [10] and in [6] was > 100 µM throughout. In addition, the TGI in assay [7], in assay [8] and in [9] was > 100 µM in each case.
With `O=C1NC2(C=Cc3c(ccc4ccccc34)O2)Oc2ccccc21` (centres undefined), the TGI is 77.7 µM in assay [2]; 30.3 µM in assay [4]; 30.5 µM in [5]; > 100 µM in assay [10]; 43.3 µM in assay [6]; 67.5 µM in assay [7]. For the same compound, the values for the TGI in [8] and in [9] were 62.5 µM and 9.41 µM, respectively.
In the case of `Cc1ccc2c(=O)c(-c3n[nH]c(=S)s3)c[nH]c2n1`, the TGI in assay [1], in assay [2], in [4], in [5], in assay [10] and in assay [6] was > 100 µM each time. The TGI in assay [7], in assay [8] and in assay [9] was > 100 µM in each case.
On to `CC1(C)c2ccccc2C(O)C12CCC(=O)CC2` (centres undefined), for which the TGI was > 100 µM in assay [1]; > 100 µM in assay [2]; > 100 µM in assay [3]; > 100 µM in [4]; > 100 µM in assay [10]; 30.8 µM in assay [6]. The TGI in assay [7], in assay [8] and in [9] was > 100 µM each time.
`C#CCCCC(=O)N(C(=O)CS(=O)CC)c1ccccc1` (centres undefined): the TGI in assay [2], in assay [3], in assay [4], in assay [5], in assay [10] and in [6] was > 100 µM in each case. In addition, the TGI in [7], in [8] and in assay [9] was > 100 µM in each case.
Take `COc1ccccc1NCC(=O)Nn1c(C)nc2ccc(S(=O)(=O)Nc3ccccc3OC)cc2c1=O`: the TGI in assay [2], in assay [3], in [4], in assay [5], in assay [10] and in assay [7] was > 100 µM each time. In addition, the TGI in [8] and in assay [9] was > 100 µM in each case.
Regarding `C[N+](C)(N)c1nc(N)c(C#N)c(C#N)c1C#N`, the TGI in [1], in assay [2], in assay [4], in [5], in [10] and in assay [6] was > 10 µM in each case. The TGI in assay [7], in assay [8] and in [9] was > 10 µM in each case.
As to `O=C1N[C@@H](COc2ccc(C=Nc3ccc(CCc4ccc(N=Cc5ccc(OC[C@@H]6COC(=O)N6)cc5)cc4)cc3)cc2)CO1`, the TGI in [1], in assay [2], in assay [4], in assay [5], in [6] and in assay [7] was > 100 µM in each case. Also, the TGI in assay [8] and in assay [9] was > 100 µM throughout.
As to `COc1ccccc1NS(=O)(=O)c1ccc2ncn(NS(=O)(=O)c3ccc(Cl)cc3)c(=O)c2c1`, the TGI in assay [2], in [3], in [4], in assay [5], in [10] and in assay [7] was > 100 µM throughout. Besides, the TGI in assay [8] and in assay [9] was > 100 µM each time.
As to `CCCCNC(=S)Nc1nc(C(=O)NNC(=O)c2ccccc2)cs1`, the TGI in assay [1] is 79.3 µM; in assay [2] it was 37.3 µM; in [3] it was > 100 µM; in assay [4], > 100 µM; in assay [5], > 100 µM; in assay [7] it was 33.9 µM. Besides, the TGI in assay [8] is > 100 µM; in assay [9] it was 28.5 µM.
As to `COc1cc2c(c(OC)c1OC)-c1ccc(SC)cc1C(=O)CC2`, the TGI in [2] is > 100 µM; in assay [3], > 100 µM; in [4] it was < 0.01 µM; in assay [5] it was > 100 µM; in assay [10] it was > 32.1 µM; in assay [6] it was > 100 µM. Moreover, the TGI in [7] and in assay [8] was > 100 µM throughout.
Take `CN(C)c1ccc(/C=c2/c3cc([N+](=O)[O-])ccc3n3c2cc(-c2ccccc2)[n+]3C)cc1`: the TGI in assay [1] was 7.94 µM; in [2], 19.6 µM; in assay [3], 3.16 µM; in [4], 6.76 µM; in [5] it was 8.85 µM; in [10], 11.7 µM. The TGI worked out at 7.51 µM in assay [7], 1.32 µM in [8] and 23 µM in [9].
`OC(c1ccccc1)(c1cccnc1)C(O)(c1ccccc1)c1cccnc1` (centres undefined): the TGI in assay [2], in assay [3], in [4], in [10], in assay [6] and in assay [7] was > 100 µM in each case. The TGI in assay [8] and in [9] was > 100 µM throughout.
In the case of `c1ccc(C2[C@@H]3CCCc4ccccc4C3=NN2c2ccccc2)cc1` (some centres undefined), the TGI in [1], in [2], in assay [4], in [5], in [10] and in assay [6] was > 100 µM each time. For the same compound, the TGI in assay [7], in [8] and in assay [9] was > 100 µM in each case.
For `C=CCN1CCC2(CC1)NC(=O)c1ccccc1O2`, the TGI in assay [2], in [3], in [4], in [5], in [10] and in [6] was > 100 µM throughout. In addition, the TGI in assay [7], in assay [8] and in [9] was > 100 µM throughout.
Regarding `COc1ccc(C2C(Cl)C(=O)N2NC(=O)Cc2ccccc2)cc1OC` (centres undefined), the TGI in assay [2], in [4], in assay [5], in [10], in [6] and in [7] was > 100 µM throughout. The TGI in assay [8] and in assay [9] was > 100 µM each time.
In the case of `CCN(CC)CCC(=O)c1ccc(Oc2ccc(F)cc2)cc1`, the TGI in assay [2] was 32.4 µM; in assay [3], 34 µM; in [4], 38.6 µM; in assay [5], 51.3 µM; in assay [6], 30.5 µM; in assay [7], > 100 µM. In [8], this compound gave a TGI of 31.1 µM.
With `O=C(O)CC(O)(C(=O)O)C(O)C(=O)O` (centres undefined), the TGI in assay [2], in assay [4], in assay [5], in assay [10], in assay [6] and in assay [7] was > 1000 µM each time. Further, the TGI in [8] was > 1000 µM.
`COc1ccc(N2C(=O)C3CC4=CC(=O)C[C@H]4[C@H]32)cc1` (some centres undefined): the TGI in assay [1], in [2], in [5], in assay [10], in assay [6] and in assay [7] was > 100 µM in each case. Moreover, the TGI in [8] and in assay [9] was > 100 µM throughout.
For `COc1cc2c(cc1OCCCCCOc1cc3c(cc1OC)C(=O)N1CCC[C@H]1CN3)N=C[C@@H]1CCCN1C2=O`, the TGI is 27.6 µM in assay [2]; 75.1 µM in assay [3]; 37.3 µM in assay [4]; 9.24 µM in [5]; > 100 µM in [10]; 72 µM in assay [6]. Moreover, the TGI in assay [7] came out at 34 µM; in assay [8] it was 5.24 µM; in assay [9], 30.9 µM.
In the case of `O=P1(c2ccccc2)C2=CCC=CC2C(c2ccccc2)N1Cc1ccccc1` (centres undefined), the TGI was 30.4 µM in [2]; 26.6 µM in assay [3]; 24.2 µM in assay [4]; 38.7 µM in assay [5]; 28.1 µM in [10]; 28.8 µM in assay [7]. Further, the TGI in assay [8] came to 30.7 µM; in assay [9], 25.8 µM.
Consider `CCOP(=O)(OCC)C(C)(C)OC(=O)NC#N`, for which the TGI in assay [2], in [3], in [4], in [5], in [10] and in assay [6] was > 100 µM each time. Moreover, the TGI in assay [7], in [8] and in assay [9] was > 100 µM in each case.
For the compound `CN1B(c2ccccc2)N(C)C(=O)N(C)C1=O`, the TGI in [2], in [3], in assay [4], in [10], in assay [6] and in [7] was > 100 µM in each case. Moreover, the TGI in assay [8] and in assay [9] was > 100 µM throughout.
In the case of `CC(C)c1cccc(C(C)C)c1OS(=O)(=O)NC(=O)OC(C(F)(F)F)C(F)(F)F`, the TGI in [1] was > 100 µM; in assay [2], > 100 µM; in assay [3], 59.9 µM; in assay [5], 55.6 µM; in assay [10], > 100 µM; in [7] it was 65.3 µM. For the same compound, the TGI in assay [8] and in [9] was > 100 µM each time.
For `CC[C@H](C)C1=C(OC(C)=O)[N@+]2([O-])Oc3ccc(-c4c(OC(C)=O)c(OC(C)=O)c(-c5ccc(OC(C)=O)cc5)c(OC(C)=O)c4OC(C)=O)cc3O[C@]2([C@@H](C)CC)C(=O)N1OC(C)=O`, the TGI in assay [1] is 42.5 µM; in [2], > 50 µM; in assay [4], > 50 µM; in assay [5] it was 36 µM; in assay [10], > 50 µM; in assay [6], > 50 µM. Further, the results for the TGI in assay [7], in assay [8] and in assay [9] were 27.1 µM, > 50 µM and > 50 µM, respectively.
As for `O=S(=O)(/N=C(\NO)Nc1ccc(Cl)cc1)c1ccc(-c2ccccn2)s1`, the TGI is > 100 µM in [2]; > 100 µM in assay [3]; > 100 µM in assay [4]; > 100 µM in assay [5]; > 100 µM in assay [10]; 94.4 µM in [6]. The TGI in assay [7], in assay [8] and in [9] was > 100 µM each time.
Consider `c1ccc(CCn2cncn2)cc1`, for which the TGI in assay [2], in [3], in assay [4], in assay [5], in assay [10] and in [7] was > 100 µM in each case. In addition, the TGI in assay [8] and in assay [9] was > 100 µM in each case.
With `C=CC1(c2ccc(OC)cc2)OCCCO1`, the TGI in assay [2], in assay [3], in assay [4], in assay [5], in [10] and in assay [6] was > 100 µM each time. The TGI in assay [7], in [8] and in assay [9] was > 100 µM throughout.
Turning to `O=C(NN=C1CCCCC1)NN=C1CCCCC1`, the TGI in assay [4], in assay [5], in [10], in assay [6], in assay [7] and in [8] was > 100 µM in each case. Moreover, the TGI in [9] was > 100 µM.
